Data reported in article PMC9786170, “The Pharmacological Potential of Novel Melittin Variants from the Honeybee and Solitary Bees against Inflammation and Cancer” (Toxins, 2022).
Entries after “also recorded” stand apart in the source; their conditions may differ.

What was measured:
HEK293T cells [1] = assay: Ca2+ induction assay (Fluo-8); format: cell-based, human; settings: Fluo-8, 0.25, 2.5, 25 µg/mL, partly already at 2.5 µg/mL, n = 4
Description: Figure 2 Melittin derivates influence cellular Ca^2+ and IP1 levels. (A) For the Ca^2+ induction assay, Fluo-8 pretreated HEK293-T cells were incubated with melittin derivates in the indicated concentrations and the fluorescence was detected. (B) For the Ca^2+ inhibition assay, Fluo-8 pretreated HEK293-T cells were incubated with peptides in the indicated concentrations for 30 min, stimulated with 5 µM ionomycin, and the fluorescence was detected. (C) IP3 has a short lifetime and is rapidly degraded to IP1; therefore, IP1 was determined. For the IP1/IP3 induction assay (left panel), HEK293T cells were incubated with melittin peptides in the indicated concentration for 2 h, a detection reagent was added, and the fluorescence resonance energy transfer signal was detected. For the IP1/IP3 inhibition assay (right panel), HEK293T cells were incubated with melittin peptides in the indicated concentration for 30 min and stimulated with 20 µM ionomycin for 1.5 h. After the addition of the detection reagent, the fluorescence resonance energy transfer signal was detected. Data are expressed as mean ± SEM. (A, B, C (left)) n = 4, (C (right)) n = 3. * p ≤ 0.05 versus control.
For analysis, 5 × 10^4 HEK293 cells or 2 × 10^4 MDA-MB-231 cells were seeded in a 96-well poly-D-lysine plate, incubated at 37 °C for 24 h, and treated with 4 µM Fluo-8-AM in HBSS for 1 h at 37 °C. After 1 h, the Fluo-8/HBSS was replaced by 100 µL HBSS. Five images per second were taken using an ImageXpress Micro Confocal High Content Imaging System (Molecular Device, San Jose, CA, USA). Melittin peptides (0.25, 2.5, and 25 µg/mL), DMSO (negative control), or 5 µM ionomycin (Sigma Aldrich; Taufkirchen, Germany) (positive control) were added to the cells. For the next 20 s, an image was obtained every second. For the inhibition assay, the peptide-treated samples (30 min) were treated with 5 µM ionomycin and for the next 20 s, an image was obtained every second. The data were analyzed with the MetaXpress Software Version 6 (Molecular Devices, San Jose, CA, USA). A threshold of fluorescence intensity was defined using cells before treatment, and all cells with a fluorescence signal above the threshold level were counted. For the induction assay, the number of cells above the threshold in the toxin-treated samples were related to the cells in the DMSO-treated sample. For the inhibition assay, the number of cells above the threshold in the melittin-treated samples were related to the cells in the ionomycin-treated sample.

[2] = tested on: triple-negative and HER2-enriched breast cancer subtypes; settings: cited from earlier work
Source text: It was also reported that a positively charged C-terminal peptide end is responsible for the plasma membrane ...

MDA-MB-231 cells = assay: Proliferation assay (crystal violet) in MDA-MB-231 cells; format: cell-based, human; settings: n = 2; for anti-proliferative activity, 72 h: MDA-MB-231, 25 µg/mL, crystal violet
Description: Figure 5 Anti-proliferative and apoptotic effect of melittin derivates on the triple-negative breast cancer cell line MDA-MB-231. (A) For the proliferation assay, cells were grown in low density and were treated after 24 h with melittin peptides at a concentration of 25 µg/mL for 72 h. Cells were stained with crystal violet solution. The amount of DNA-bound crystal violet was detected by absorbance measurements. (B) Melt3, 4, and Xac4, which are non-toxic to healthy cells, were further used to test effects on proliferation at 24 h (left) and 48 h (right) at different concentrations. (C) The effects on apoptosis were detected by flow cytometry after 24 h (left), 48 h (middle), and 72 h (right) of treatment. The number of apoptotic cells was determined by staining with propidium iodide (PI). Data are expressed as mean ± SEM. n = 2, * p ≤ 0.05 versus control. Sts, staurosporin 1 µM.
HMECs (2000 cells/well) were seeded into collagen-coated 96-well plates and grown for 24 h. Then, they were treated with melittin peptides. Treated cells were cultured for 72 h, whereas untreated control cells, directly after 24 h, were fixed with a methanol-ethanol (2:1) solution and washed with PBS before they were stained using a crystal violet solution (20% methanol). Similarly, at the end of incubation time, cells treated with melittin peptides were fixed, stained, and unbound crystal violet was removed by washing with distilled water. Finally, cells were left to air dry, and DNA-bound crystal violet was dissolved using an acetic acid solution (20%, Sigma-Aldrich, Steinheim, Germany). Absorbance was measured at 590 nm using a plate reader (Infinite F200Pro, Tecan, Männedorf, Switzerland). The proliferation percentage was calculated by normalizing to the untreated control (24 h) and compared to the DMSO control (0.03%) of 72 h incubation. Similarly, MDA-MB-231 cells (6000 cells/well) were seeded into 96-well plates, and their proliferation ability under treatment conditions was tested as described above.

HEK293T cells [3] = assay: Cell viability assay (WST-8/Orangu formazan) in HEK293T cells; format: cell-based, human; settings: 25 µg/mL, 24 h, WST-8 formazan absorbance, n = 4
Description: Figure 1 Toxicity characterization of cells treated with melittin peptides. (A,B) For the viability assay, RAW264.7 (A) or HEK293T (B) cells were treated with bee venom compounds in the indicated concentrations for 24 h. Cells were incubated with WST-8 and the formed formazan was detected by absorbance measurements. (C) For the proliferation assay, HMEC-1 cells were grown in low density and treated after 24 h with the indicated peptide (25 µg/mL) for 72 h. Cells were stained with crystal violet solution. The amount of DNA-bound crystal violet was detected by absorbance measurements. (D) The number of sub-diploidic cells was determined by staining with propidium iodide (PI) and quantified to assess apoptosis of HUVECs. Data are expressed as mean ± SEM. (A) n = 3, (B) n = 4, (C) n = 2–3, (D) n = 2. * p ≤ 0.05 versus control.
For assessing the cytotoxicity of all peptides, various cell types and assays were utilized. […] After incubation, absorbance was measured at a wavelength of 450 nm with a reference at 650 nm at an EnSpire 2300 Multimode Plate Reader (Perkin Elmer, Lübeck, Germany). To calculate cell viability, the absorbance of vehicle-treated cells was set to 100%, and the melittin derivates-treated samples were correlated to them.

Substance: melittin [Melt, reference compound]
- induction of Ca2+ release (HEK293T cells [1]): induced a significant release of Ca^2+; also recorded: induce Ca^2+ release
- apoptosis of breast cancer subtypes [2]: induce apoptosis
- anti-proliferative activity, 72 h (MDA-MB-231 cells): exhibited anti-proliferative activity
- cytotoxicity (cell viability) (HEK293T cells [3]): showed cytotoxicity

Substance: xylopin [Xac4]
- induction of Ca2+ release (HEK293T cells [1]): induce Ca^2+ release
- anti-proliferative activity, 72 h (MDA-MB-231 cells): exhibited anti-proliferative activity; also recorded: anti-proliferative effects on breast cancer cells
- proliferation at 24 h and 48 h, concentration range (MDA-MB-231 cells; MDA-MB-231, 24 h and 48 h, different concentrations, Melt4 effect at 10 and 25 µg/mL): trend of decreased proliferation
- cytotoxicity (cell viability) (HEK293T cells [3]): showed cytotoxicity
